Assay results from patent publication US9701670B2, “Pyrazolyl-ureas as kinase inhibitors” (RESPIVERT LIMITED, priority 2013, dated 2017).
pIC50: −log10 of the molar value.

Legend:
[1] = target: T1, p38 MAPKα isoform (MAPK14) (Homo sapiens (Human), UniProt Q16539); test: p38 MAPKα enzyme inhibition (FRET, Z-LYTE), Method 1; format: biochemical; settings: Method 1 (Table 4a1)
[2] = target: T1, p38 MAPKα isoform (MAPK14); test: p38 MAPKα enzyme inhibition (FRET, Z-LYTE), Method 2; format: biochemical; settings: Method 2, different laboratory (Table 4a2)
Protocol: The enzyme inhibitory activities of compounds disclosed herein are determined by FRET using synthetic peptides labelled with both donor and acceptor fluorophores (Z-LYTE, Invitrogen Ltd., Paisley, UK).
The inhibitory activities of test compounds against the p38 MAPKα isoform (MAPK14: Invitrogen), are evaluated indirectly by determining the level of activation/phosphorylation of the down-stream molecule, MAPKAP-K2. The p38 MAPKα protein (80 ng/mL, 2.5 μL) is mixed with the test compound (2.5 μL of either 4 μg/mL, 0.4 μg/mL, 0.04 μg/mL or 0.004 μg/mL) for 2 hr at RT. […] The mixture is incubated for 1 hr at RT. Development reagent (protease, 5 μL) is added for 1 hr prior to detection in a fluorescence microplate reader (Varioskan® Flash, ThermoFisher Scientific).
In all cases, the site-specific protease cleaves non-phosphorylated peptide only and eliminates the FRET signal. Phosphorylation levels of each reaction are calculated using the ratio of coumarin emission (donor) over fluorescein emission (acceptor), for which high ratios indicate high phosphorylation and low ratios indicate low phosphorylation levels.

[3] = test system: Differentiated U937 cells; test: (l) Cell viability: MTT assay; format: cell-based, human; settings: 1 μg/mL
In short: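 Differentiated U937 cells were exposed to compound at 1 or 10 μg/mL either 4 h in 5% FCS RPMI1640 or 24 h in 10% FCS RPMI1640, then given MTT for 1 h, DMSO-solubilised and read at 550 nm. Percent viability loss versus 0.5% DMSO vehicle; apparent gains appear negative.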

[4] = test system: β-catenin in d-U937 cells; test: (m) Accumulation of β catenin in d-U937 cells; format: cell-based, human
Protocol: U937 cells, a human monocytic cell line, are differentiated into macrophage-type cells by incubation with PMA; (100 ng/mL) for between 48 to 72 hr. The cells are then incubated with either final concentrations of test compound or vehicle for 18 hr. The induction of β-catenin by the test compounds is stopped by replacing the media with 4% formaldehyde solution. Endogenous peroxide activity is neutralised by incubating with quenching buffer (100 μL, 0.1% sodium azide, 1% H2O2 in PBS with 0.05% Tween-20) for 20 min. The cells are washed with washing buffer (200 μL; PBS containing 0.05% Tween-20) and incubated with blocking solution (200 μL; 5% milk in PBS) for 1 hr, re-washed with washing buffer (200 μL) and then incubated overnight with anti-β-catenin antibody solution (50 μL) in 1% BSA/PBS (BD, Oxford, UK).
After washing with washing buffer (3×200 μL; PBS containing 0.05% Tween-20), cells are incubated with an HRP-conjugated secondary antibody solution (100 μL) in 1% BSA/PBS (Dako, Cambridge, UK) and the resultant signal is determined colourimetrically (OD: 450 nm with a reference wavelength of 655 nm) using TMB substrate (50 μL; R&D Systems, Abingdon, UK). This reaction is stopped by addition of 1N H2SO4 solution (50 μL). Cells are then washed with washing buffer and 2% crystal violet solution (50 μL) is applied for 30 min. After washing with washing buffer (3×200 μL), 1% SDS (100 μL) is added to each well and the plates are shaken lightly for 1 hr prior to measuring the absorbance at 595 nm (Varioskan® Flash, Thermo-Fisher Scientific).
The measured OD450-655 readings are corrected for cell number by dividing the OD450-655 by the OD595 readings. […] A signal less than 0.15 (15%) of that observed for the standard control is designated as “-ve”.

[5] = test system: BDF1 mice; test: (C) TNBS-induced colitis in mice; format: in vivo, mouse; set-up: TNBS Ulcer grade / TNBS LP inflammation: scale not given here; settings: 2 days; for TNBS LP inflammation / TNBS Ulcer grade: mice
Protocol: Non-fasted, 10-12 week old, male BDF1 mice are dosed by oral gavage twice daily with either vehicle (5 mL/kg), reference item (Budesonide 2.5 mg/kg) or test compound (1, 5 or 50 mg/kg) one day before (Day −1) stimulation of the inflammatory response by treatment with 2,4,6-trinitrobenzenesulphonic acid (TNBS) (15 mg/mL in 50% ethanol/50% saline). On Day 0 of the study TNBS (200 μL) is administered intra-colonically via a plastic catheter followed by BID dosing of the vehicle, reference or test compound for 2 or 4 days. During the study animals are weighed every day and stool observations are made and recorded as a score, based on stool consistency. At the time of sacrifice on Day 2 (or Day 4) the large intestine is removed and the length and weight recorded. Sections of the colon are taken for either MPO analysis to determine neutrophil infiltration or for histopathology involving scoring to determine disease severity.

[6] = test system: Intestinal mucosa biopsies from the inflamed regions of the colon of IBD patients; test: (h) Human biopsy assay (cytokine release); format: cell-based
Protocol: Intestinal mucosa biopsies are obtained from the inflamed regions of the colon of IBD patients. The biopsy material is cut into small pieces (2-3 mm) and placed on steel grids in an organ culture chamber at 37° C. in a 5% CO2/95% O2 atmosphere in serum-free media. DMSO control or test compounds at the desired concentration are added to the tissue and incubated for 24 hr in the organ culture chamber. The supernatant is harvested for determination of IL-6, IL-8, […] and TNFα levels by R&D ELISA.

T1 sequence (Q16539 whole entry, canonical isoform): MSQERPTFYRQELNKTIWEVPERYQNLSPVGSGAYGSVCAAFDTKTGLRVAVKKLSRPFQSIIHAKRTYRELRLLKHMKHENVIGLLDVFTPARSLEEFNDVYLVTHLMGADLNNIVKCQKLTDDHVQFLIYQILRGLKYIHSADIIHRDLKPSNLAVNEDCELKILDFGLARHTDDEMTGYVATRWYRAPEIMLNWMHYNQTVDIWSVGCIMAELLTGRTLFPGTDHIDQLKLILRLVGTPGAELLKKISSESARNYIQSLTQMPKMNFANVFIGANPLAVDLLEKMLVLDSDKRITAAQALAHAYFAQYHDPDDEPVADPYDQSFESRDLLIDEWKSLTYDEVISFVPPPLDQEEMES

Row | SMILES | pIC50 [2] | Cell viability at time point in d-U937 cells 4 h [3] | Cell viability at time point in d-U937 cells 24 h [3] | % β-catenin induction ([4]; 1 μg/mL test compound) | % β-catenin induction ([4]; 5 μg/mL test compound) | also measured
1 | COc1cc(Nc2cc(Oc3ccc(NC(=O)Nc4cc(C(C)(C)C)nn4-c4ccc(C)cc4)c4ccccc34)ccn2)cc(C(=O)NCCN2CCOCC2)c1 [Example 1, 3-((4-((4-(3-(3-(tert-Butyl)-1-(p-tolyl)-1H-pyrazol-5-yl)ureido)naphthalen-1-yl)oxy)pyridin-2-yl)amino)-5-methoxy-N-(2-morpholinoethyl)benzamide] | 7.30 | −ve (−ve and +ve indicate that the value is below and above respectively, the no significant effect threshold, defined as 30% inhibition at 1 μg/mL at the time point indicated.) | −ve (−ve and +ve indicate that the value is below and above respectively, the no significant effect threshold, defined as 30% inhibition at 1 μg/mL at the time point indicated.) | −7% | −6% | pIC50 [1]: 7.40
2 | C#Cc1cc(Nc2nccc(Oc3ccc(NC(=O)Nc4cc(C(C)(C)C(F)(F)F)nn4-c4ccc(C)cc4)c4ccccc34)n2)cc(C(=O)NCCN2CCOCC2)c1 [Example 76, 3-Ethynyl-N-(2-morpholinoethyl)-5-((4-((4-(3-(1-(p-tolyl)-3-(1,1,1-trifluoro-2-methylpropan-2-yl)-1H-pyrazol-5-yl)ureido)naphthalen-1-yl)oxy)pyrimidin-2-yl)amino)-benzamide] | 6.63 | – | – | −3% | −1% | –
3 | CCCC1O[C@@H]2C[C@H]3[C@@H]4CCC5=CC(=O)C=C[C@]5(C)[C@H]4[C@@H](O)C[C@]3(C)[C@]2(C(=O)CO)O1 (stereo partly shown) [Budesonide, reference compound] | – | – | – | – | – | TNBS LP inflammation ([5]; 2.5 mg/kg oral BID): 2.5 ± 0.4; TNBS Ulcer grade ([5]; 2.5 mg/kg oral BID): 2.9 ± 0.6
4 | C#Cc1cc(Nc2nccc(Oc3ccc(NC(=O)Nc4cc(C(C)C)nn4-c4ccc(C)cc4)c4ccccc34)n2)cc(C(=O)NCCN2CCOCC2)c1 [Example 46, 3-ethynyl-5-((4-((4-(3-(3-isopropyl-1-(p-tolyl)-1H-pyrazol-5-yl)ureido)naphthalen-1-yl)oxy)pyrimidin-2-yl)amino)-N-(2-morpholinoethyl)benzamide] | 7.39 | −ve (−ve and +ve indicate that the value is below and above respectively, the no significant effect threshold, defined as 30% inhibition at 1 μg/mL at the time point indicated.) | −ve (−ve and +ve indicate that the value is below and above respectively, the no significant effect threshold, defined as 30% inhibition at 1 μg/mL at the time point indicated.) | – | – | Cytokine release from biopsies of UC patients IL-1b release ([6]; 1 μg/mL, DMSO control 100%): 35 ± 14%; Cytokine release from biopsies of UC patients IL-6 release ([6]; 1 μg/mL, DMSO control 100%): 44 ± 38%; Cytokine release from biopsies of UC patients IL-8 release ([6]; 1 μg/mL, DMSO control 100%): 49 ± 35%; cytokine release from biopsies from ulcerative colitis (UC) patients ([6]; added to biopsies in vitro): markedly reduced IL-1b, IL-6 and IL-8 release; histopathology analysis, in vivo model of colonic inflammation ([5]; TNBS-induced colitis, dosed orally at 5 mg/kg): significant activity; TNBS LP inflammation ([5]; 1 mg/kg oral BID): 3.1 ± 0.6; TNBS Ulcer grade ([5]; 1 mg/kg oral BID): 3.4 ± 0.6; TNBS LP inflammation ([5]; 5 mg/kg oral BID): 2.0 ± 0.5; TNBS Ulcer grade ([5]; 5 mg/kg oral BID): 2.4 ± 0.6
5 | C#Cc1cc(Nc2nccc(Oc3ccc(NC(=O)Nc4cc(C(C)(C)C)nn4-c4ccc(OC)nc4)c4ccccc34)n2)cc(C(=O)NCCN2CCOCC2)c1 [Example 73, 3-((4-((4-(3-(3-(tert-Butyl)-1-(6-methoxypyridin-3-yl)-1H-pyrazol-5-yl)ureido)naphthalen-1-yl)oxy)pyrimidin-2-yl)amino)-5-ethynyl-N-(2-morpholinoethyl)benzamide] | 7.33 | – | – | 17% | −7% | % β-catenin induction ([4]; 10 μg/mL test compound): 7%
6 | C#Cc1cc(Nc2nccc(Oc3ccc(NC(=O)Nc4cc(C(C)(C)C)nn4-c4ccc(C)cc4)c4ccccc34)n2)cc(C(=O)N[C@H](C)CN2CCOCC2)c1 [Example 83, (R)-3-((4-((4-(3-(3-(tert-Butyl)-1-(p-tolyl)-1H-pyrazol-5-yl)ureido)naphthalen-1-yl)oxy)pyrimidin-2-yl)amino)-5-ethynyl-N-(1-morpholinopropan-2-yl)benzamide] | 6.58 | – | – | −3% | −6% | –
7 | C#Cc1cc(Nc2nccc(Oc3ccc(NC(=O)Nc4cc(C(C)(C)C)nn4-c4ccc(C)cc4)c4ccccc34)n2)cc(C(=O)N[C@@H](C)CN2CCOCC2)c1 [Example 81, (S)-3-((4-((4-(3-(3-(tert-Butyl)-1-(p-tolyl)-1H-pyrazol-5-yl)ureido)naphthalen-1-yl)oxy)pyrimidin-2-yl)amino)-5-ethynyl-N-(1-morpholinopropan-2-yl)benzamide] | 6.86 | – | – | 3% | −3% | –
8 | COCCNC(=O)c1cc(Nc2nccc(Oc3ccc(NC(=O)Nc4cc(C(C)C)nn4-c4ccc(OC)cc4)c4ccccc34)n2)cc(OC)c1 [Example 11, 3-((4-((4-(3-(3-Isopropyl-1-(4-methoxyphenyl)-1H-pyrazol-5-yl)ureido)naphthalen-1-yl)oxy)pyrimidin-2-yl)amino)-5-methoxy-N-(2-methoxyethyl)benzamide] | 6.98 | −ve (−ve and +ve indicate that the value is below and above respectively, the no significant effect threshold, defined as 30% inhibition at 1 μg/mL at the time point indicated.) | −ve (−ve and +ve indicate that the value is below and above respectively, the no significant effect threshold, defined as 30% inhibition at 1 μg/mL at the time point indicated.) | −1% | 1% | pIC50 [1]: 7.60; % β-catenin induction ([4]; 10 μg/mL test compound): 1%
